Data: patent US20030032587A1, “Urocortin peptides” (The Salk Institute for Biological Studies, priority 1995, published 2003)
Bridges are numbered along the chain shown (N, C = ends). Where no end group is shown, it is not given here. [ ]: non-standard residue; d: D form. Orn = NCCC[C@H](N)C(=O)O

target: CRF receptors on anterior pituitary cells in culture; assay: cell-based or functional assay; settings: not given

Row | ACTH secretion, anterior pituitary cell cultures, potency relative to r/hCRF [times r/hCRF] | Molecule
1 | 6.14 | Ac-PSLSIDLT[dF]HLLRTLLELARTQSQREEA[dE]KNRIIFDSV-NH2 (lactam 27-30; SMILES CC[C@H](C)[C@H](NC(=O)[C@H](CO)NC(=O)[C@H](CC(C)C)NC(=O)[C@H](CO)NC(=O)[C@@H]1CCCN1C(C)=O)C(=O)N[C@@H](CC(=O)O)C(=O)N[C@@H](CC(C)C)C(=O)N[C@H](C(=O)N[C@H](Cc1ccccc1)C(=O)N[C@@H](Cc1c[nH]cn1)C(=O)N[C@@H](CC(C)C)C(=O)N[C@@H](CC(C)C)C(=O)N[C@@H](CCCNC(=N)N)C(=O)N[C@H](C(=O)N[C@@H](CC(C)C)C(=O)N[C@@H](CC(C)C)C(=O)N[C@@H](CCC(=O)O)C(=O)N[C@@H](CC(C)C)C(=O)N[C@@H](C)C(=O)N[C@@H](CCCNC(=N)N)C(=O)N[C@H](C(=O)N[C@@H](CCC(N)=O)C(=O)N[C@@H](CO)C(=O)N[C@@H](CCC(N)=O)C(=O)N[C@@H](CCCNC(=N)N)C(=O)N[C@@H](CCC(=O)O)C(=O)N[C@H]1CCC(=O)NCCCC[C@@H](C(=O)N[C@@H](CC(N)=O)C(=O)N[C@@H](CCCNC(=N)N)C(=O)N[C@H](C(=O)N[C@H](C(=O)N[C@@H](Cc2ccccc2)C(=O)N[C@@H](CC(=O)O)C(=O)N[C@@H](CO)C(=O)N[C@H](C(N)=O)C(C)C)[C@@H](C)CC)[C@@H](C)CC)NC(=O)[C@@H](CCC(=O)O)NC(=O)[C@H](C)NC1=O)[C@@H](C)O)[C@@H](C)O)[C@@H](C)O) [(cyclo 29-32) [Ac-Pro3,D-Phe11, Glu29, D-Glu31, Lys32]-hUcn(3-40)]
2 | 1.23 | [dY]DNPSLSIDLTFHLLRTLLELARTQSQRERAEQNRIIFDSV-NH2 [[D-Tyr0]hUcn(1-40)]

system: mammalian mean arterial blood pressure; assay: in vivo test measuring elevation of mean arterial blood pressure as a result of iv injection; settings: result in words; indicative of a Ucn antagonist
Description: The peptide, Ucn(11-40), having the amino acid sequence (see SEQ ID NO: 8): […] is synthesized in the manner described in Example I. To evaluate the biological activity of a candidate peptide as a Ucn antagonist (which will be indicative of its effective binding to CRF receptors), the previously mentioned assay from Endocrinology, 91, supra, is run in the presence of a challenge dose of ovine CRF. […] An in vivo test measuring elevation of mean arterial blood pressure as a result of iv injection is also simply and straightforwardly performed.

Row | Molecule | vasoconstrictive activity causing elevation of mean arterial blood pressure
3 | H-[dF]HLLRTLLELARTQSQREKA[dE]ENRIIFDSV-NH2 | significant mammalian vasoconstrictive activity
4 | H-[dF]HLLRTLLELARTQSQREEA[dR][Orn]NRIIFDSV-NH2 | significant mammalian vasoconstrictive activity
5 | H-[dY]HLLRTLLELARTQSQRERAEQNRIIFDSV-NH2 [[D-Tyr^11]-Ucn(11-40)] | significant mammalian vasoconstrictive activity
6 | H-[dY]HLLRTLLELARTQSQREEA[dE]KNRIIFDSV-NH2 | significant mammalian vasoconstrictive activity
7 | H-Phe-His-Leu-Leu-Arg-Thr-Leu-Leu-Glu-Leu-Ala-Arg-Thr-Gln-Ser-Gln-Arg-Glu-Arg-Ala-Glu-Gln-Asn-Arg-Ile-Ile-Phe-Asp-Ser-Val-NH2 (H-FHLLRTLLELARTQSQRERAEQNRIIFDSV-NH2) [Ucn(11-40)] | significant mammalian vasoconstrictive activity
8 | H-[dF]HLLRTLLELARTQSQREKAEENRIIFDSV-NH2 | significant mammalian vasoconstrictive activity
